Data reported in US20230183237A1, “COMPETITIVE AND NONCOMPETITIVE INHIBITORS OF THE MUSCARINIC ACETYLCHOLINE RECEPTOR M5” (Vanderbilt University, priority 2020, published 2023).

biological target: T1, hM5 (Homo sapiens, UniProt P08912); assay: Calcium mobilization concentration-response (IC50 vs EC80 acetylcholine), CHO hM5; assay type: cell-based; conditions: CELL LINE hM5; calcium mobilization, EC80 acetylcholine addition; read-out: IC50
T1 construct: expressed in transfected cells
T1 sequence (P08912 1-532): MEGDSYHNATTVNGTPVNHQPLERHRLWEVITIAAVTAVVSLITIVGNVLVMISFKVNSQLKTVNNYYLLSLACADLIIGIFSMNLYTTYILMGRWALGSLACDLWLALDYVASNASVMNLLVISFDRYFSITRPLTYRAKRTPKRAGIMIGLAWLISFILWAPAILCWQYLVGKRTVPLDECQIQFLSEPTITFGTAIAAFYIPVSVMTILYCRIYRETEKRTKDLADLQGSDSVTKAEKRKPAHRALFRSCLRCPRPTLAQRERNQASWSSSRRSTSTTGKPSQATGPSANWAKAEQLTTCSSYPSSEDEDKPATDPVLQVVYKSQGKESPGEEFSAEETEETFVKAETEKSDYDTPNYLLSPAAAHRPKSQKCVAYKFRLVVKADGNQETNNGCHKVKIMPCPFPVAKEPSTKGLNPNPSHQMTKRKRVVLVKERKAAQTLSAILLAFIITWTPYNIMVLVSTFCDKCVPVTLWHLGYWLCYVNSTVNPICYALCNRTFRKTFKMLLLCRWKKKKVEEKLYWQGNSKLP
Outline: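 IC50 values derive from percent maximal acetylcholine response after an EC80 ACh addition, measured as kinetic calcium fluorescence (static ratio, max−min). Test compounds were added 140 s before agonist. Cells: stable hM5-CHO in HEPES-buffered HBSS with 2.5 mM probenecid, pH 7.4; ≥3 independent triplicate determinations.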

Row | SMILES | IC50
1 | Cc1c(C2CCN(S(=O)(=O)c3cnc4n3CCCC4)CC2)cn2ncnc2c1F [Compound 349, 8-fluoro-7-methyl-6-(1-((5,6,7,8-tetrahydroimidazo[1,2-a]pyridin-3-yl)sulfonyl)piperidin-4-yl)-[1,2,4]triazolo[1,5-a]pyridine] | 17 nM
2 | O=S(=O)(c1cnn2c1CCCC2)N1CC=C(c2cc3ncnn3cc2Cl)CC1 [Compound 241, 6-chloro-7-(1-((4,5,6,7-tetrahydropyrazolo[1,5-a]pyridin-3-yl)sulfonyl)-1,2,3,6-tetrahydropyridin-4-yl)-[1,2,4]triazolo[1,5-a]pyridine] | 212 nM
3 | Cc1c(C2CCN(S(=O)(=O)c3cnn(C)c3C)CC2)cn2ncnc2c1F [Compound 264, 6-(1-((1,5-dimethyl-1H-pyrazol-4-yl)sulfonyl)piperidin-4-yl)-8-fluoro-7-methyl-[1,2,4]triazolo[1,5-a]pyridine] | 21 nM
4 | O=S(=O)(c1cnc2n1CCCC2)N1CCC(c2cn3ncnc3cc2C(F)(F)F)CC1 [Compound 339, 6-(1-((5,6,7.8-tetrahydroimidazo[1,2-a]pyridin-3-yl)sulfonyl)piperidin-4-yl)-7-(trifluoromethyl)-[1,2,4]triazolo[1,5-a]pyridine] | 67 nM
5 | O=S(=O)(c1cc2c(cc1F)OCC2)N1CCC(c2cc3cc[nH]c3cn2)CC1 [Compound 93, 5-(1-((6-fluoro-2,3-dihydrobenzofuran-5-yl)sulfonyl)piperidin-4-yl)-1H-pyrrolo[2,3-c]pyridine] | > 10000 nM
6 | Cn1ncc(S(=O)(=O)N2CCC(c3ccncc3)CC2)c1Cl [Compound 364, 4-(1-((5-chloro-1-methyl-1H-pyrazol-4-yl)sulfonyl)piperidin-4-yl)pyridine] | > 10000 nM
7 | COc1cc2ncnn2cc1C1CCN(S(=O)(=O)c2cnn(C)c2C)CC1 [Compound 201, 6-(1-((1,5-dimethyl-1H-pyrazol-4-yl)sulfonyl)piperidin-4-yl)-7-methoxy-[1,2,4]triazolo[1,5-a]pyridine] | 765 nM
8 | Cc1cc2ncnn2cc1C1CCN(S(=O)(=O)c2cnn3c2CCCC3)CC1 [Compound 238, 7-methyl-6-(1-((4,5,6,7-tetrahydropyrazolo[1,5-a]pyridin-3-yl)sulfonyl)piperidin-4-yl)-[1,2,4]triazolo[1,5-a]pyridine] | 6 nM
9 | Cc1nn(C)c(C(F)(F)F)c1S(=O)(=O)N1CCC(c2cn3ncnc3cc2C(F)(F)F)CC1 [Compound 281, 6-(1-((1,3-dimethyl-5-(trifluoromethyl)-1H-pyrazol-4-yl)sulfonyl)piperidin-4-yl)-7-(trifluoromethyl)-[1,2,4]triazolo[1,5-a]pyridine] | 1400 nM
10 | [2H]C([2H])([2H])n1nc(Cl)c(S(=O)(=O)N2CCC(c3cn4ncnc4cc3F)CC2)c1C [Compound 257, 6-(1-((3-chloro-5-methyl-1-(methyl-d3)-1H-pyrazol-4-yl)sulfonyl)piperidin-4-yl)-7-fluoro-[1,2,4]triazolo[1,5-a]pyridine] | 89 nM
11 | O=S(=O)(c1cc2c(cc1F)OCC2)N1CCC(c2cn3ncnc3cc2C(F)(F)F)CC1 [Compound 110, 6-(1-((6-fluoro-2,3-dihydrobenzofuran-5-yl)sulfonyl)piperidin-4-yl)-7-(trifluoromethyl)-[1,2,4]triazolo[1,5-a]pyridine] | 2100 nM
12 | Cc1sc(C(N)=O)nc1C1=CCN(S(=O)(=O)c2cnn(C)c2C)CC1 [Compound 202, 4-(1-((1,5-dimethyl-1H-pyrazol-4-yl)sulfonyl)-1,2,3,6-tetrahydropyridin-4-yl)-5-methylthiazole-2-carboxamide] | > 10000 nM
13 | Cc1nc(C)c(S(=O)(=O)N2CCC(c3nn4ccnc4cc3C)CC2)s1 [Compound 249, 2,4-dimethyl-5-((4-(7-methylimidazo[1,2-b]pyridazin-6-yl)piperidin-1-yl)sulfonyl)thiazole] | 2600 nM
14 | CCc1cc2ncnn2cc1C1=CCN(S(=O)(=O)c2cnn(C)c2C)CC1 [Compound 194, 6-(1-((1,5-dimethyl-1H-pyrazol-4-yl)sulfonyl)-1,2,3,6-tetrahydropyridin-4-yl)-7-ethyl-[1,2,4]triazolo[1,5-a]pyridine] | 55 nM
15 | Cc1cc2ncnn2cc1C1CCN(S(=O)(=O)c2cnn3c2NCCC3)CC1 [Compound 261, 7-methyl-6-(1-((4,5,6,7-tetrahydropyrazolo[1,5-a]pyrimidin-3-yl)sulfonyl)piperidin-4-yl)-[1,2,4]triazolo[1,5-a]pyridine] | 62 nM
16 | Cc1nc2[nH]cnc2cc1C1CCN(S(=O)(=O)c2cnn3c2CCC3)CC1 [Compound 289, 6-(1-((5,6-dihydro-4H-pyrrolo[1,2-b]pyrazol-3-yl)sulfonyl)piperidin-4-yl)-5-methyl-3H-imidazo[4,5-b]pyridine] | > 10000 nM
17 | COc1cc2ncnn2cc1C1CCN(S(=O)(=O)c2ccc3c(c2)C(C)CO3)CC1 (centres unmarked) [Compound 90, 7-methoxy-6-(1-((3-methyl-2,3-dihydrobenzofuran-5-yl)sulfonyl)piperidin-4-yl)-[1,2,4]triazolo[1,5-a]pyridine] | 3100 nM
18 | O=S(=O)(c1cnc2n1CCC2)N1CC=C(c2cc3ncnn3cc2Cl)CC1 [Compound 206, 6-chloro-7-(1-((6,7-dihydro-5H-pyrrolo[1,2-a]imidazol-3-yl)sulfonyl)-1,2,3,6-tetrahydropyridin-4-yl)-[1,2,4]triazolo[1,5-a]pyridine] | > 10000 nM
19 | Cc1cc2ncnn2cc1C1CCN(S(=O)(=O)c2cn(C)cn2)CC1 [Compound 128, 7-methyl-6-(1-((1-methyl-1H-imidazol-4-yl)sulfonyl)piperidin-4-yl)-[1,2,4]triazolo[1,5-a]pyridine] | 1300 nM
20 | [2H]C1([2H])Oc2ccc(S(=O)(=O)N3CCC(c4cn5nc(C)nc5cc4C)CC3)cc2C1([2H])[2H] [Compound 91, 6-(1-((2,3-dihydrobenzofuran-5-yl-2,2,3,3-d4)sulfonyl)piperidin-4-yl)-2,7-dimethyl-[1,2,4]triazolo[1,5-a]pyridine] | > 10000 nM

same assay, conditions: CELL LINE hM5; vs EC80 acetylcholine; read-out: IC50

Row | SMILES | IC50
21 | CCc1cc2ncnn2cc1C1CCN(S(=O)(=O)c2cnc3sccn23)CC1 [Compound 512, 5-((4-(7-ethyl-[1,2,4]triazolo[1,5-a]pyridin-6-yl)piperidin-1-yl)sulfonyl)imidazo[2,1-b]thiazole] | 115 nM
22 | COc1c(S(=O)(=O)N2CCC(F)(c3cn4ncnc4cc3C)CC2)cnn1C [Compound 586, 6-(4-fluoro-1-((5-methoxy-1-methyl-1H-pyrazol-4-yl)sulfonyl)piperidin-4-yl)-7-methyl-[1,2,4]triazolo[1,5-a]pyridine] | 147 nM
23 | COc1c(S(=O)(=O)N2CCC(c3cn4ncnc4cc3F)CC2)cnn1C [Compound 574, 7-fluoro-6-(1-((5-methoxy-1-methyl-1H-pyrazol-4-yl)sulfonyl)piperidin-4-yl)-[1,2,4]triazolo[1,5-a]pyridine] | 137 nM
24 | Cc1nc2n(c1C1CCN(S(=O)(=O)c3cnn(C)c3CC#N)CC1)CCCC2 [Compound 466, 2-(1-methyl-4-((4-(2-methyl-5,6,7,8-tetrahydroimidazo[1,2-a]pyridin-3-yl)piperidin-1-yl)sulfonyl)-1H-pyrazol-5-yl)acetonitrile] | > 10000 nM
25 | Cn1nc(-c2ccco2)cc1C1CCN(S(=O)(=O)c2cnn(C)c2Cl)CC1 [Compound 590, 1-((5-Chloro-1-methyl-1H-pyrazol-4-yl)sulfonyl)-4-(3-(furan-2-yl)-1-methyl-1H-pyrazol-5-yl)piperidine] | 3100 nM
26 | O=S(=O)(c1cnn2cccnc12)N1CCC(c2cn3ncnc3cc2F)CC1 [Compound 443, 7-fluoro-6-(1-(pyrazolo[1,5-a]pyrimidin-3-ylsulfonyl)piperidin-4-yl)-[1,2,4]triazolo[1,5-a]pyridine] | > 10000 nM
27 | Cc1c(C2CCN(S(=O)(=O)c3cnn4ccccc34)CC2)cn2ncnc2c1F [Compound 545, 8-fluoro-7-methyl-6-(1-(pyrazolo[1,5-a]pyridin-3-ylsulfonyl)piperidin-4-yl)-[1,2,4]triazolo[1,5-a]pyridine] | 33 nM
28 | Cn1ncc(S(=O)(=O)N2CC=C(c3c4ccccc4nn3C)CC2)c1Cl [Compound 489, 3-(1-((5-chloro-1-methyl-1H-pyrazol-4-yl)sulfonyl)-1,2,3,6-tetrahydropyridin-4-yl)-2-methyl-2H-indazole] | 1290 nM
29 | Cc1cc2nccnc2cc1C1CCN(S(=O)(=O)c2cnn(C)c2C)CC1 [Compound 425, 6-(1-((1,5-dimethyl-1H-pyrazol-4-yl)sulfonyl)piperidin-4-yl)-7-methylquinoxaline] | 72 nM
30 | COc1c(S(=O)(=O)N2CCC(c3cn4ncnc4cc3Cl)CC2)cnn1C [Compound 575, 7-chloro-6-(1-((5-methoxy-1-methyl-1H-pyrazol-4-yl)sulfonyl)piperidin-4-yl)-[1,2,4]triazolo[1,5-a]pyridine] | 6 nM
31 | Cn1ncc(S(=O)(=O)N2CCC(F)(c3cn4ncnc4cc3F)CC2)c1Cl [Compound 502, 6-(1-((5-chloro-1-methyl-1H-pyrazol-4-yl)sulfonyl)-4-fluoropiperidin-4-yl)-7-fluoro-[1,2,4]triazolo[1,5-a]pyridine] | 1630 nM
32 | O=S(=O)(c1cnc(Cl)s1)N1CCC(c2cn3ncnc3cc2Cl)CC1 [Compound 532, 2-chloro-5-((4-(7-chloro-[1,2,4]triazoto[1,5-a]pyridin-6-yl)piperidin-1-yl)sulfonyl)thiazole] | 172 nM
